Data published in ChEMBL document CHEMBL1201862, “PubChem BioAssay data set” (2004).
Calls of active or inactive are those of the source.

How the values were obtained:
[1] = target: T1, Peroxisome proliferator-activated receptor gamma (Homo sapiens, UniProt P37231); test: PPARg partial agonists, dose response, cell-based, luminescence, assay provider (AID 504447); type: functional
T1 sequence (P37231 whole entry): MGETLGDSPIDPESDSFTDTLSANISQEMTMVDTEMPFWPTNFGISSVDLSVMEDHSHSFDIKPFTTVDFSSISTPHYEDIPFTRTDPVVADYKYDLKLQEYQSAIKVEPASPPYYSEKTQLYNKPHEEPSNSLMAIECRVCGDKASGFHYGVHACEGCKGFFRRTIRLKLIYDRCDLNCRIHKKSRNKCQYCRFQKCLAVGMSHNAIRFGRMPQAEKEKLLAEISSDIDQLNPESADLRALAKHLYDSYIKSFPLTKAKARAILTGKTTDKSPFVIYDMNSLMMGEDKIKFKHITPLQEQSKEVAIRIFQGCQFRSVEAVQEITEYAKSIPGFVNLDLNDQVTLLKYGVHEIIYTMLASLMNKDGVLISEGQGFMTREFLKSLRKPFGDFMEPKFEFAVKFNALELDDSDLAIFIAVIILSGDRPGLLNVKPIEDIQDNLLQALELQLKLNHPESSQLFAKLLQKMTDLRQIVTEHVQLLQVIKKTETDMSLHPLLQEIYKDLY

[2] = target: T1, Peroxisome proliferator-activated receptor gamma; test: PPARg ligand-binding domain binders, dose response, PPARg partial agonist project, biochemical, TR-FRET, LanthaScreen (AID 504446)
[3] = target: T1, Peroxisome proliferator-activated receptor gamma; test: PPARg ligand-binding domain binders, dose response, PPARg partial agonist project, biochemical, fluorescence polarization, PolarScreen (AID 504453)
[4] = target: T2, Runt-related transcription factor 1/Core-binding factor subunit beta (Homo sapiens, UniProt Q01196+Q13951); test: inhibitors of RUNX1 Runt–CBFb-SMMHC binding, biochemical, TR-FRET (AID 1438); type: protein assay
[5] = target: T2, Runt-related transcription factor 1/Core-binding factor subunit beta; test: inhibitors of RUNX1 Runt–CBFb-SMMHC binding, primary screen, biochemical, FRET, Cerulean-Runt, Venus-CBFb-SMMHC, uHTS (AID 1434); type: protein assay;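 also: partner is the CBFb-SMMHC leukemia fusion protein rather than wild-type CBFb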
[6] = target: Induced myeloid leukemia cell differentiation protein Mcl-1 (Homo sapiens, UniProt Q07820); type: functional
[7] = target: Voltage-dependent T-type calcium channel subunit alpha-1H (Homo sapiens, UniProt O95180); test: Cav3.2 T-type channel inhibitors, synthesized analogs, SAR follow-up, cell-based, synthetic library set 2, HEK293 HH8, Fluo-4 (AID 493023); type: functional
[8] = test system: Streptococcus sp. 'group A'; test: growth inhibition of control SK(-) GAS strain, dose response, counter-screen for streptokinase expression inhibitor project, luminescence, kanamycin, BacTiterGlo, confirmation (AID 1900); type: functional, organism-based
[9] = test system: Streptococcus; test: Group A Streptococcus viability loss, dose response, counter-screen for streptokinase expression inhibitor project, luminescence, BacTiterGlo (AID 1915); type: functional, organism-based;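 also: potency for reduction of bacterial viability or growth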
[10] = cytotoxicity toward NIH3T3 fibroblasts, dose response, counter-screen, cell-based, ATP luminescence, mouse fibroblasts (AID 2010); type: functional;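 also: cells exposed to compound for about 90 hours before reading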
[11] = target: Mu-type opioid receptor (Homo sapiens, UniProt P35372); test: HTS Image-Based Screen for Agonists of the MOR Receptor. [Related pubchem assays (depositor defined):AID1777, AID1785, AID1786, AID2133]; type: functional;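 also: imaging of beta-arrestin GFP recruitment into spots after receptor activation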
[12] = target: Beta-galactosidase (Escherichia coli, UniProt Q8VNN2); type: functional
[13] = inhibitors of intracellular T. cruzi replication, confirmation, NIH3T3 host cells, beta-gal luminescence (AID 2044); type: functional, cell-based;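 also: intracellular parasites grown in NIH/3T3 mouse fibroblasts as host cells; luminescent beta-galactosidase reporter signal from transgenic T. cruzi replicating inside host cells; inhibitors lower the luminescence signal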
[14] = test system: Vero; test: cells; type: functional; settings: Chlorocebus sabaeus
[15] = test system: Vero; test: cells; type: functional, cell-based; settings: Chlorocebus sabaeus
[16] = target: T3, Kappa-type opioid receptor (Homo sapiens, UniProt P41145); type: functional
[17] = target: T4, Delta-type opioid receptor (Homo sapiens, UniProt P41143); test: HTS Image-Based Screen for Antagonists of the DOR Receptor. [Related pubchem assays (depositor defined):AID1777, AID1785, AID1786, AID2133]; type: functional
[18] = target: T4, Delta-type opioid receptor; test: HTS Image-Based Screen for Agonists of the DOR Receptor. [Related pubchem assays (depositor defined):AID1777, AID1786, AID2133]; type: functional
[19] = target: T3, Kappa-type opioid receptor; type: functional; remark: listed apart in the source
[20] = test system: H9c2; test: cells; type: functional, cell-based; settings: Rattus norvegicus, H9c2, Myocardium;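 also: confirmatory concentration-response retest of ultra-high-throughput screening hits for modulation of myocardial damage; cell death induced by hydrogen peroxide oxidative stress; compound pretreatment for 60 min then peroxide exposure for 2 h; potency is for protecting the cells against peroxide damage rather than for killing them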
[21] = target: G-protein coupled receptor 55 (Homo sapiens, UniProt Q9Y2T6); test: SAR analysis of selective Agonists of GPR55 using an Image-Based Assay. [Related pubchem assays (depositor defined):AID1961, AID1965]; type: functional
[22] = target: Cannabinoid receptor 1 (Homo sapiens, UniProt P21554); test: SAR analysis of antagonists of the Cannabinoid Receptor 1 using an Image-Based Assay. [Related pubchem assays (depositor defined):AID1961, AID1965]; type: functional
[23] = target: T5, Cannabinoid receptor 2 (Homo sapiens, UniProt P34972); test: SAR analysis of agonists of the Cannabinoid Receptor 2 using an Image-Based Assay - Set 2. [Related pubchem assays (depositor defined):AID1961, AID1965]; type: functional
[24] = target: T5, Cannabinoid receptor 2; test: SAR analysis of antagonists of the Cannabinoid Receptor 2 using an Image-Based Assay - Set 2. [Related pubchem assays (depositor defined):AID1961, AID1965]; type: functional
[25] = Luminescence Cell-Based Dose Response HTS to Identify Inhibitors of 5'UTR Stem-Loop Driven Prion Protein mRNA Translation in H4 Neuroglioblastoma Cells. [Related pubchem assays: 1827 (Project Summary), 1813 (Primary HTS)]; type: functional
[26] = inhibitors of firefly luciferase expression or activity, dose response, H4 neuroglioma cells, luminescence (AID 1990); type: functional, cell-based
[27] = Luminescence Cell-Based Dose Retest to Confirm Activators of 5'UTR Stem-Loop Driven Alpha-Synuclein mRNA Translation in H4 Neuroglioblastoma Cells. [Related pubchem assays (depositor defined):AID1813, AID1829]; type: functional
[28] = Luminescence Cell-Based Dose Response HTS to Identify Activators of Luciferase Translation or Activity in H4-C Neuroglioblastoma Cells. [Related pubchem assays: 1829 (Project Summary), 1814 (Primary HTS)]; type: functional
[29] = Luminescence Cell-Based Dose Response HTS to Identify Activators of 5'UTR Stem-Loop Driven Prion Protein mRNA Translation in H4-C Neuroglioblastoma Cells. [Related pubchem assays: 1829 (Project Summary), 1814 (Primary HTS)]; type: functional
[30] = Luminescence Cell-Based Dose HTS Response to Identify Inhibitors of 5'UTR Stem-Loop Driven Prion Protein mRNA Translation in H4-C Neuroglioblastoma Cells. [Related pubchem assays (depositor defined):AID1814, AID1827]; type: functional
[31] = Luminescence Cell-Based Dose Response HTS to Identify Inhibitors of Luciferase Translation or Activity in H4-C Neuroglioblastoma Cells. [Related pubchem assays: 1813 (Primary HTS), 1827 (Project Summary)]; type: functional
[32] = Luminescence Cell-Based Dose Confirmation HTS to Identify Inhibitors of 5'UTR Stem-Loop Driven Alpha-Synuclein mRNA Translation in H4 Neuroglioblastoma Cells. [Related pubchem assays: 1827 (Project Summary), 1813 (Primary HTS)]; type: functional
[33] = inhibitors of SNCA 5'UTR-driven reporter translation, confirmation, H4 neuroglioma cells, luminescence (AID 1988); type: functional, cell-based
[34] = cells; type: functional
[35] = Vero E6 cell cytotoxicity, dose response, cytotoxicity control for non-replicating M. tuberculosis project, secondary assay (AID 492998); type: functional, VeroE6; settings: Vero C1008
[36] = HepG2 cell cytotoxicity, dose response, cytotoxicity control for non-replicating M. tuberculosis project (AID 489018); type: functional; settings: Mycobacterium tuberculosis
[37] = THP-1 cell cytotoxicity, dose response, cytotoxicity control for non-replicating M. tuberculosis project (AID 489025); type: functional
[38] = target: T6, Heat shock factor protein 1 (Mus musculus, UniProt P38532); test: inhibition of MG132-induced HSE-luciferase signal, confirmation, cell-based, NIH3T3, luminescence, dose retest (AID 2382); type: functional;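 also: NIH3T3 fibroblasts with HSF1-driven luciferase reporter stressed by proteasome inhibitor MG132; luminescence from HSF1-driven luciferase expression after 8 hours of MG132 stress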
T6 sequence (P38532 whole entry): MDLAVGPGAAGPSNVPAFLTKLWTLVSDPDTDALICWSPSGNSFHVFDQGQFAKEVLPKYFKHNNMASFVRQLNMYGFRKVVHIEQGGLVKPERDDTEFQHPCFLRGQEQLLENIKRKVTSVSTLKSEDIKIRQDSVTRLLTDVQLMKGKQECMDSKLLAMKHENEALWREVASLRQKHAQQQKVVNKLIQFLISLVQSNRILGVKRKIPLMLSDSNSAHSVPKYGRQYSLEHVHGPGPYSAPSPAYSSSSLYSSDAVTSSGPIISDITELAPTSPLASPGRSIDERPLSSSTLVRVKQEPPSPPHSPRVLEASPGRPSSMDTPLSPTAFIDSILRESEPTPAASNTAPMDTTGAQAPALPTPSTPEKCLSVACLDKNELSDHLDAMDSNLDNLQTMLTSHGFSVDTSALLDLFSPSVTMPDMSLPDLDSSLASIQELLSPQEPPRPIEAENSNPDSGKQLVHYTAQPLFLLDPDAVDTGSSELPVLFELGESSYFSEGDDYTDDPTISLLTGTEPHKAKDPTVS

[39] = target: T7, DNA repair protein RAD52 homolog (Homo sapiens, UniProt P43351); type: functional, biochemical
T7 sequence (P43351 whole entry): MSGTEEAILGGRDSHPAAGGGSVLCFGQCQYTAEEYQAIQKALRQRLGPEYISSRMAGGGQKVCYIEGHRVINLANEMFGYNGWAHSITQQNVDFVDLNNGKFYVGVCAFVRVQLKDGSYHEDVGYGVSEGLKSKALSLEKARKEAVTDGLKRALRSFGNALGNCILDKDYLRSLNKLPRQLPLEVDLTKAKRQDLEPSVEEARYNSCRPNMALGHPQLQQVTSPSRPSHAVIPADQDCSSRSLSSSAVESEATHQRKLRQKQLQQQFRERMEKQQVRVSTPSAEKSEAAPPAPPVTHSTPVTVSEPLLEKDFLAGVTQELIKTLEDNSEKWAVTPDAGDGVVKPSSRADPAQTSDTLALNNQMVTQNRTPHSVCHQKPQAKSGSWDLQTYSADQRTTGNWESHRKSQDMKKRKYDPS

[40] = test system: HEK293; test: SAR analysis of compounds that are cytotoxic to HEK293 - Set 3. [Related pubchem assays (depositor defined):AID1575, AID1578, AID1848, AID1849, AID2001, AID2333, AID2334, AID2335, AID2337, AID2469]; type: functional, cell-based; settings: Homo sapiens
[41] = target: Nucleotide-binding oligomerization domain-containing protein 2 (Homo sapiens, UniProt Q9HC29); test: NOD2 signaling inhibitors, analog potency, SAR follow-up, cell-based, set 3 (AID 2799); type: functional
[42] = target: Nucleotide-binding oligomerization domain-containing protein 1 (Homo sapiens, UniProt Q9Y239); test: SAR analysis of compounds that inhibit NOD1 - Set 3. [Related pubchem assays (depositor defined):AID1566, AID1575, AID1578, AID1849, AID1852, AID2333, AID2335, AID2466]; type: functional
[43] = target: Tumor necrosis factor (Homo sapiens, UniProt P01375); test: TNFa-triggered NF-kB activation inhibitors, SAR follow-up, cell-based, set 3 (AID 2801); type: functional
Chain of Tumor necrosis factor (P01375 whole entry): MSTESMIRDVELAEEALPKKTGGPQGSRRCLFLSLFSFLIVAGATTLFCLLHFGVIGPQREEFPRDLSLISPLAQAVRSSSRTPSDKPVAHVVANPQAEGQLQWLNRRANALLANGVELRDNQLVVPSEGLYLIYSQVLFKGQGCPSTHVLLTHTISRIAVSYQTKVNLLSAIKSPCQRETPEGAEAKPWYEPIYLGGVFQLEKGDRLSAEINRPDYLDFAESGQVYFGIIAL

T3 sequence (P41145 whole entry): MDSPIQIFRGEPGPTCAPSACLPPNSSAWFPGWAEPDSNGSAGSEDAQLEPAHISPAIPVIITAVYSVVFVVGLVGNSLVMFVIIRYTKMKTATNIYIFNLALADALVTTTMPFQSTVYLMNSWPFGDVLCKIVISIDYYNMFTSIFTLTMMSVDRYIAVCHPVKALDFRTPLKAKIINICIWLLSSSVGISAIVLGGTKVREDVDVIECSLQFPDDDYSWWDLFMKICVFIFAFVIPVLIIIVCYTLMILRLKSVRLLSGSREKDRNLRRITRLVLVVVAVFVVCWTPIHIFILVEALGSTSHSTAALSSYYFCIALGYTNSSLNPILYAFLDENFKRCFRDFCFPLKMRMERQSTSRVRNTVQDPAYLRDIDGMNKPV
T2 sequence (Q01196 whole entry, the tested form may be a part): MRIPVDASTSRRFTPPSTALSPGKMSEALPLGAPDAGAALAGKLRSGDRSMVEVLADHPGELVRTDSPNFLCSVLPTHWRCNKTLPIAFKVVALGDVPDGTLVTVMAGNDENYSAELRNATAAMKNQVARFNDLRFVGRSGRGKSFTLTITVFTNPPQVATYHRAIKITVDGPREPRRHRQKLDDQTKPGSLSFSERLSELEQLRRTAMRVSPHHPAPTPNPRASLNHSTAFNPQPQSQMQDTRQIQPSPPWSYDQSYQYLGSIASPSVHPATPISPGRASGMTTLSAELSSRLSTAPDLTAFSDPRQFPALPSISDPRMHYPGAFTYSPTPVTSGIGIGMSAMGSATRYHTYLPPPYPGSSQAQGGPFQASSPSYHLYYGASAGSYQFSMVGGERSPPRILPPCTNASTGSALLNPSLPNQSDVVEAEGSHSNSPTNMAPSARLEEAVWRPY
T2 sequence (Q13951 whole entry, the tested form may be a part): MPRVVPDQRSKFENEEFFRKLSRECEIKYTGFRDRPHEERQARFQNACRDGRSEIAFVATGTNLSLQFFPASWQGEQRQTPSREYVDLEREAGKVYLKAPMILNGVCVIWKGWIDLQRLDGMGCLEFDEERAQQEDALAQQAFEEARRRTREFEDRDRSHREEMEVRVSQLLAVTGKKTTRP
T5 sequence (P34972 whole entry): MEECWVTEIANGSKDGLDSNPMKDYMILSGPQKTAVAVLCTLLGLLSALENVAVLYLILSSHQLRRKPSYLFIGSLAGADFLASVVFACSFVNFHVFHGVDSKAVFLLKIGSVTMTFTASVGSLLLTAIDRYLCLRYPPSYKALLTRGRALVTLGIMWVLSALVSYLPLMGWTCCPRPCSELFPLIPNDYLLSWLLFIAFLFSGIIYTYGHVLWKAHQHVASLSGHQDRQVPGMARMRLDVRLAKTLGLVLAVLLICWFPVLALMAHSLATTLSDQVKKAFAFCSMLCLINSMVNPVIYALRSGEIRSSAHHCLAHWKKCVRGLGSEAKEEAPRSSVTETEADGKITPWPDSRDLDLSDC
T4 sequence (P41143 whole entry): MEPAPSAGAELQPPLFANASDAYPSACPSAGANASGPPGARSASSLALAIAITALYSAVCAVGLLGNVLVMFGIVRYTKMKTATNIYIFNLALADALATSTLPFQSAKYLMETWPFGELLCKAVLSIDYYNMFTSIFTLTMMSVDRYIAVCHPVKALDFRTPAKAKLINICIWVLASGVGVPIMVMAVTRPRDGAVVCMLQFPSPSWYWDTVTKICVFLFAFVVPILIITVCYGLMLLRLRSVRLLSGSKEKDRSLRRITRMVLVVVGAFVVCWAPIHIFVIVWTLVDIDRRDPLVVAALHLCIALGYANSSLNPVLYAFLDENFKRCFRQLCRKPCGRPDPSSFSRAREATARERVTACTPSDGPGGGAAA
Chain of Nucleotide-binding oligomerization domain-containing protein 1 (Q9Y239 whole entry, the tested form may be a part): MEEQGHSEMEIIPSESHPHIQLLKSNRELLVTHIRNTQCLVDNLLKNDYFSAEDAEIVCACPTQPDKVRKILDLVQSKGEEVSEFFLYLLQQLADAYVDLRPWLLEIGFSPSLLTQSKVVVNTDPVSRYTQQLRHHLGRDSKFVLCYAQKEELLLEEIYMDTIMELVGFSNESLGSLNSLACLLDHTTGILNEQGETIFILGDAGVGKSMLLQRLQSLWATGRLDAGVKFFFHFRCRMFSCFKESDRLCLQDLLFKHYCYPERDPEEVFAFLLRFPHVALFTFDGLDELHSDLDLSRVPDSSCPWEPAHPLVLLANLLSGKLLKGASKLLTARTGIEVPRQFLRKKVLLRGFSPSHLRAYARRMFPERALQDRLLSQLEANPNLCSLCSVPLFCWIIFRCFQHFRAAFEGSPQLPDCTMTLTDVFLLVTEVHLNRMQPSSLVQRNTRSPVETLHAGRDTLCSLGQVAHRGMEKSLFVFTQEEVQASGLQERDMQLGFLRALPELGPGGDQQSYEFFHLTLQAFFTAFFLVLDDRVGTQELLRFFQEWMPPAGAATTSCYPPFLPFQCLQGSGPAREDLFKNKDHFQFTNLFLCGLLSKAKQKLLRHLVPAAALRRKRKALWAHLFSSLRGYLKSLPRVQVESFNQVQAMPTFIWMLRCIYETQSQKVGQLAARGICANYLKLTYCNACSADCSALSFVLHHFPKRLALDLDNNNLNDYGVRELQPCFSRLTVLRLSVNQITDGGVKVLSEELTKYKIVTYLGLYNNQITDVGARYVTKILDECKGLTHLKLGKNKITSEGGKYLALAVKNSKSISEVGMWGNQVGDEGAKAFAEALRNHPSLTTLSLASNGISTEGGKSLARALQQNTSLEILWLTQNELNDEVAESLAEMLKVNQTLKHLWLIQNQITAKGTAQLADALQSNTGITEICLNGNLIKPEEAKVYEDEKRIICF
Chain of Beta-galactosidase (Q8VNN2 whole entry): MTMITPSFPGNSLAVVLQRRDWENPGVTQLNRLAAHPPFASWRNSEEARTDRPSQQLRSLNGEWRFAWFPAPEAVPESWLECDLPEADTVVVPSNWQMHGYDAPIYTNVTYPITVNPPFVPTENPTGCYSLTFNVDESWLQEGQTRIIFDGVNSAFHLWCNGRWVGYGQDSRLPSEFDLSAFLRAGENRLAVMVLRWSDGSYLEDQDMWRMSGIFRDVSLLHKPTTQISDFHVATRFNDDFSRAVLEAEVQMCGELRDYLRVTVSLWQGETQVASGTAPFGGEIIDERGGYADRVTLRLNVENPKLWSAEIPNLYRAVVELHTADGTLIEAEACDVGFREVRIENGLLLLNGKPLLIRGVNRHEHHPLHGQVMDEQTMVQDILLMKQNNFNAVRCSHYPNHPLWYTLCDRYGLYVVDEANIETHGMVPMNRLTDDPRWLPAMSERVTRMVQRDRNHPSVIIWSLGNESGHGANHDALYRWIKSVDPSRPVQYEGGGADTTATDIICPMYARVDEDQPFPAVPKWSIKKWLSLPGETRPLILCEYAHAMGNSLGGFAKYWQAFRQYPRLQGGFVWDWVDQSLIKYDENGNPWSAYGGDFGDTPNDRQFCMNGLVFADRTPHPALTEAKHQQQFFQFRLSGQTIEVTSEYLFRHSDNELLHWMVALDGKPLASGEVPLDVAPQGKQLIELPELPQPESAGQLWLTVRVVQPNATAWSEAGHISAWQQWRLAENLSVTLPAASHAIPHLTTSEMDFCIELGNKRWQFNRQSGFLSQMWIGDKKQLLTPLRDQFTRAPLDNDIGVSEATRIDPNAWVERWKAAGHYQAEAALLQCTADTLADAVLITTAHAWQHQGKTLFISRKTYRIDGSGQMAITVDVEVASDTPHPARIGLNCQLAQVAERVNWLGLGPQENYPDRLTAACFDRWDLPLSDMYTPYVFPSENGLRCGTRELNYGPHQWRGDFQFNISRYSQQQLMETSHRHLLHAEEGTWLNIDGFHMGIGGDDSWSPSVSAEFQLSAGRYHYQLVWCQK
Chain of Mu-type opioid receptor (P35372 whole entry): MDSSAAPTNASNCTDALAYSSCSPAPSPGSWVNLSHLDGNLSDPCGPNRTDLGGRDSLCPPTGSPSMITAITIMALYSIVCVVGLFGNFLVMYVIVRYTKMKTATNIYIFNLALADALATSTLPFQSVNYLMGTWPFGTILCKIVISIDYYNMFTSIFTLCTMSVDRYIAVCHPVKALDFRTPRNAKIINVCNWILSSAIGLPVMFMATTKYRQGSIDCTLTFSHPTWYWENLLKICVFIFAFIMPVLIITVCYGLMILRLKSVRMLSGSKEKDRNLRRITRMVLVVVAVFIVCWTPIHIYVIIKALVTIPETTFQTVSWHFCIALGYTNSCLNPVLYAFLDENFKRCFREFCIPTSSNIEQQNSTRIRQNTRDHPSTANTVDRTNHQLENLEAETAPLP
Chain of Cannabinoid receptor 1 (P21554 whole entry): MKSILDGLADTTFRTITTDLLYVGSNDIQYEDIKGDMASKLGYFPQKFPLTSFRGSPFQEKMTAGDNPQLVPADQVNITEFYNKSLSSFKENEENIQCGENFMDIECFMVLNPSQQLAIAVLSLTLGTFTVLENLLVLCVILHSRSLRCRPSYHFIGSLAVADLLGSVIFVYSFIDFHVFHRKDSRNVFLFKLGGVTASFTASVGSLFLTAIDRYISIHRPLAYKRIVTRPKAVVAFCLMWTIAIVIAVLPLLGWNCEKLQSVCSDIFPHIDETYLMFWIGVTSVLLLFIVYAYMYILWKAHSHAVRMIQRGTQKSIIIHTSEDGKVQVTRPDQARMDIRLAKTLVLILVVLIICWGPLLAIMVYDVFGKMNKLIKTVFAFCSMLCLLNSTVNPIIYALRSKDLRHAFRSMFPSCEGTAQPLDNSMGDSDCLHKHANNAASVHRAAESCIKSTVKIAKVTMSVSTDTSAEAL

With `CCOc1ccc2nc(N3C(=O)C(O)=C(C(=O)c4ccco4)C3c3ccco3)sc2c1` (stereo not drawn) the EC50 [1] was 1.2 µM (active), the IC50 [2] was 8.2 µM (inactive) and the IC50 [3] was 3 µM (active).
With `Nc1c(C(=O)NCCN2CCOCC2)c2nc3ccccc3nc2n1Cc1ccco1` the IC50 [4] was > 100 µM (inactive), the IC50 [5] was 1.19 µM (active) and the IC50 [6] was 6.49 µM (not active).
In the case of `O=C(COc1ccc(F)c(Cl)c1)N[C@@H]1CCCN(Cc2ccccc2)C1`, the EC50 [7] is reported as 10 µM (active).
For `CC(Oc1ccc(Br)cc1)C(=O)Nc1nc(-c2ccccn2)cs1` (stereo not drawn), the EC50 [8] was 0.211 µM (active), the EC50 [9] was 2.24 µM (active) and the EC50 [10] was 5.27 µM (active). For the same compound, the EC50 [11] was > 32 µM (inactive), the EC50 [12] was > 31.5 µM (inactive) and the EC50 [13] was 0.909 µM (active). The CC50 [14] was 9.95 µM (active), the IC50 [15] was > 25 µM (active) and the IC50 [16] was 5.42 µM (active). For the same compound, the IC50 [17] was > 32 µM (inactive), the EC50 [18] was > 32 µM (inactive) and the IC50 [19] was > 32 µM. For the same compound, the IC50 [20] was > 79 µM (inactive).
With `CCCN(CCC)Cc1c(C(=O)NN=C/C(C)=C\c2ccccc2)nnn1-c1nonc1N` the EC50 [21] was 0.325 µM (active), the IC50 [22] was > 32 µM (inactive) and the EC50 [23] was > 32 µM (inactive). For the same compound, the IC50 [24] was > 32 µM (inactive).
With `Cc1cc(C)cc(Nc2nc3ccc(C)cc3n3cnnc23)c1` the EC50 [25] was > 120 µM (not active), the EC50 [26] was > 120 µM (not active) and the EC50 [27] was 16.6 µM (inconclusive). The EC50 [28] was 20.5 µM (inconclusive), the EC50 [29] was > 195 µM (inconclusive) and the EC50 [30] was > 195 µM (inactive). For the same compound, the EC50 [31] was 20.5 µM (active), the EC50 [32] was 16.6 µM (active) and the EC50 [33] was 2.82 µM (active).
In the case of `CCN(CC)CCCN(C(=O)c1ccco1)c1nc(-c2ccc(C)cc2)cs1`, the IC50 [34] is reported as 44.2 µM (active), the CC50 [35] is reported as > 20 µM (active) and the CC50 [36] is reported as > 20 µM (active). The CC50 [37] was 38.2 µM (active), the EC50 [38] was > 195 µM (not active) and the AC50 [39] was 20.7 µM (active).
For `Nc1nc2ccccc2n1S(=O)(=O)c1ccc(C(F)(F)F)cc1`, the IC50 [40] was > 20 µM (inactive), the IC50 [41] was > 20 µM (inactive) and the IC50 [42] was 0.955 µM (active). For the same compound, the IC50 [43] was > 20 µM (inactive).
